Reference: US7342137B1, “Cyclohexenone compounds from Antrodia camphorata and application thereof” (Golden Biotechnology Corporation, priority 2007, dated 2008)

Experiments:
[1] = tested on: Human low density lipoprotein (LDL); assay: In vitro antioxidant activity study (Cu2+-induced LDL oxidation, diene formation); format: biochemical; conditions: 40 μg/mL formula 2; for Capacity values: capacity value 1 = 2 μM Trolox, antioxidant ability when larger than 0.5
Experimental: Human low density lipoprotein (LDL) oxidated with copper ion (Cu^2+) has been widely employed to assess antioxidant activities of samples to be assayed. Antioxidant activity of a sample is determined by the diene contents of LDL after oxidation and expressed in Trolox equivalents by using a standard curve calculated from the water-soluble vitamin E analogue Trolox standards (the antioxidant capacity value of 1 is expressed in terms of 2 μM of Trolox).
The following solutions were prepared firstly: double distilled water (the negative control group), 5 mM sodium phosphate buffer (SPB), 1 μM and 2 μM Trolox solution (the positive control group), and 40 μg/ml 4-hydroxy-2,3-dimethoxy-6-methyl-5(3,7,11-trimethyl-dodeca-2,6,10-trienyl)-cyclohex-2-enone isolated from example 1. The concentration of LDL cholesterol (LDL-C) was determined using enzyme reaction method, which was diluted to 0.1-0.25 mg/ml with 5 mM SPB. One hundred μl of the LDL was added into each well of a 96-well quartz plate, followed by addition of the abovementioned Trolox and the isolated compound from example 1. Standardized oxidizing agent CuSO4 was supplemented to induce oxidation at a final concentration of 5 μM in each 250 μl well. The plate was read on an ELISA reader at wavelength of 232 nm at 37 °C for 12 hours. The sampling time was 15 min.

[2] = tested on: human prostate cancer cells, LNCaP; assay: In vitro survival assay (MTT), prostate cancer cells LNCaP; format: cell-based; conditions: 48 hours incubation
Experimental: (§1) The NCI anti-cancer drug screen model was also adopted to test the anti-cancer effect of the compound isolated from example 1 in the present invention. The isolated compound of 4-hydroxy-2,3-dimethoxy-6-methyl-5(3,7,11-trimethyl-dodeca-2,6,10-trienyl)-cyclohex-2-enone from example 1 was added into the culture media of human prostate cancer cells, LNCaP or DU-145, for tumor cell survival assay.
(§2) The human […] cells, LNCaP and DU-145, were separately cultivated in media containing fetal calf serum for 24 hours. The proliferated cells were washed once with PBS, then treated with 1× trypsin-EDTA and centrifuged at 1200 rpm for 5 minutes. The supernatant was discarded and the cell pellet was resuspended in 10 ml of fresh culture medium by gently shaking. The cells were placed in a 96-well plate. Ethanol extracts of Antrodia camphorata (the control group, total extracts of Antrodia camphorata without purification) or 4-hydroxy-2,3-dimethoxy-6-methyl-5(3,7,11-trimethyl-dodeca-2,6,10-trienyl)-cyclohex-2-enone (the experiment group) were added into each of the 96 wells at the following concentrations: 30, 10, 3, 1, 0.3, 0.1 and 0.03 μg/ml, respectively. The cells were incubated at 37° C. in a 5% CO2 incubator for 48 hours. […] The plates were read on an ELISA reader at wavelength of 570 nm to determine the survival rates.

[3] = tested on: human breast-cancer cells, MDA-MB-231; assay: In vitro survival assay (MTT), breast cancer cells MDA-MB-231; format: cell-based; conditions: 48 hours incubation
Experimental: The NCI anti-cancer drug screen model was adopted to test the anti-cancer effect of the compound from example 1 in the invention. The isolated compound of 4-hydroxy-2,3-dimethoxy-6-methyl-5(3,7,11-trimethyl-dodeca-2,6,10-trienyl)-cyclohex-2-enone from example 1 was added into the culture media of human breast-cancer cells, MCF-7 or MDA-MB-231, for tumor cell survival assay. This assay can be tested with 3-[4,5-dimethylthiazol-2-yl]2,5-diphenyltetrazolium bromide (MTT) assay, which is commonly used to determine cell proliferation, percent of viable cells, and cytotoxicity. MTT is a yellow dye, which can be absorbed by the living cells and be reduced to purplish blue formazan crystals by succinate tetrazolium reductase in mitochondria. Formazan formation can therefore be used to assess and determine the survival rate of cells.
The human breast-cancer cells, MCF-7 and MDA-MB-231 were separately cultivated in media containing fetal calf serum for 24 hours. The proliferated cells were washed once with PBS, then treated with 1× trypsin-EDTA and centrifuged at 1200 rpm for 5 minutes. The supernatant was discarded and the cell pellet was resuspended in 10 ml of fresh culture medium by gently shaking. The cells were placed in a 96-well plate. […] The plates were read on an ELISA reader at wavelength of 570 nm to determine the survival rates.

[4] = tested on: human hepatic-cancer cells, Hep 3B; assay: In vitro survival assay (MTT), hepatic cancer cells Hep 3B; format: cell-based; conditions: Hep3B, 48 hours incubation
Experimental: as §1, with “hepatic-cancer” for “prostate cancer”, “Hep 3B” for “LNCaP”, “Hep G2,” for “DU-145,”
as §2, with “cells, Hep 3B” for “cells, LNCaP”, “and Hep G2,” for “and DU-145,”, “purification) were added into each of the 96 wells at the following concentrations: 30, 10, 3, 1, 0.3, 0.1 and 0.03 μg/ml, respectively, while” for “purification) or”, “respectively.” for “respectively. The cells were incubated at 37° C. in a 5% CO2 incubator for 48 hours.”

Question: COC1=C(OC)C(O)C(C/C=C(\C)CC/C=C(\C)CCC=C(C)C)C(C)C1=O (stereo not shown) [formula 2, 4-hydroxy-2,3-dimethoxy-6-methyl-5(3,7,11-trimethyl-dodeca-2,6,10-trienyl)-cyclohex-2-enone] was tested. Which “Tlag” value ([1]; LDL oxidised with 5 μM CuSO4) did it give?
Answer: 439 min

Question: And the Capacity values [1]?
Answer: 1.30

Question: And the Capacity values ([1]; listed as 4-hydroxy-2,3-dimethoxy-6-methyl-5(3,7,11-trimethyl-dodeca-2,6,10-trienyl)-cyclo)?
Answer: 1.3

Question: And the “ΔTlag” value ([1]; difference between Tlag and Tlag0 (H2O))?
Answer: 208 min

Question: And the IC50 [2]?
Answer: 2.38 µg/mL

Question: What about the IC50 [3] of the same molecule?
Answer: 1.03 µg/mL

Question: And the IC50 [4]?
Answer: 0.005 µg/mL
